IC50 data for one compound are collected here from BindingDB's records for doi:10.7270/Q2PG1Q6D (Burnham Center For Chemical Genomics, 2011).

The test addresses T1, Protein Mdm4 (Homo sapiens, UniProt O15151).
T1 sequence (O15151 whole entry): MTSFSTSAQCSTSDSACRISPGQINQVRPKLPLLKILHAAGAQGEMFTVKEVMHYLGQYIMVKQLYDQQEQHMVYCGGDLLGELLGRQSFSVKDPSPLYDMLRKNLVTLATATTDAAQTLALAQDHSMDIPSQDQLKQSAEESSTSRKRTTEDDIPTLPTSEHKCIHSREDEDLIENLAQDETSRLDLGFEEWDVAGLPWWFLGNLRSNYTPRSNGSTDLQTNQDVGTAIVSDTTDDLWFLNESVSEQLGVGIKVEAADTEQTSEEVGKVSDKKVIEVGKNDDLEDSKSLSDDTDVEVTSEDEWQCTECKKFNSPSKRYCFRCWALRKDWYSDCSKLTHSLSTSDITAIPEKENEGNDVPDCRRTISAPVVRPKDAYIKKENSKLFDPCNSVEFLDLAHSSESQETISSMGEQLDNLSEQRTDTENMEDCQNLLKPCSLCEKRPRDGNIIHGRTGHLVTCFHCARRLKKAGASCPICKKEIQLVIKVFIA
Kind of test: disruption of Mdm2/MdmX protein binding – luminescence detection, dose response (AID 504593).

Turning to `Cc1cc(N=NC(C)c2ccccc2O)nc(-c2ccccc2O)n1` (stereo unspecified), the IC50 (as a rule, the concentration that gives 50% inhibition) turned out to be 6.71 µM.
